Laboratory results taken from patent US20250388589A1, “TRICYCLIC HETEROCYCLIC DERIVATIVES, COMPOSITIONS AND USES THEREOF” (Danatlas Pharmaceuticals Co., Ltd., priority 2022, published 2025).

What was measured:
[1] = target: hPARG (C-terminal His6-tag) (Homo sapiens (Human), UniProt Q86W56); assay: PARG Enzymatic Activity Assay (HTRF); type: biochemical; conditions: hPARG 65 pM final, biotinylated-NAD ribosylated PARP1 8 nM final
Method in brief: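 Readout is time-resolved fluorescence at 620 and 665 nm after 60 min RT detection with streptavidin-Eu cryptate and anti-6HIS-XL665; IC50 by 4-parameter fit, 1% DMSO and no-enzyme controls. Reaction: 8 nM final ribosylated PARP1 substrate for 10 min RT, following 60 min RT enzyme (65 pM)–compound preincubation in Tris pH 7.4 buffer with EDTA, DTT, KCl.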

Kuramochi cell line = assay: Cell Viability Assay (Cell Titer-Glo, 7 days); type: cell-based; conditions: 168 h, Kuramochi cells, 7 days incubation, read-out: PARG Cell viability (IC50)
Method in brief: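 IC50 from a four-parameter fit of CellTiter-Glo luminescence, scaled between DMSO-treated (high) and medium-only (low) wells. Kuramochi cells (400/well, RPMI/10% FBS) exposed 7 days at 37 °C to 9 concentrations, 3-fold steps, in duplicate.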

Sequence of hPARG (C-terminal His6-tag) (Q86W56 whole entry): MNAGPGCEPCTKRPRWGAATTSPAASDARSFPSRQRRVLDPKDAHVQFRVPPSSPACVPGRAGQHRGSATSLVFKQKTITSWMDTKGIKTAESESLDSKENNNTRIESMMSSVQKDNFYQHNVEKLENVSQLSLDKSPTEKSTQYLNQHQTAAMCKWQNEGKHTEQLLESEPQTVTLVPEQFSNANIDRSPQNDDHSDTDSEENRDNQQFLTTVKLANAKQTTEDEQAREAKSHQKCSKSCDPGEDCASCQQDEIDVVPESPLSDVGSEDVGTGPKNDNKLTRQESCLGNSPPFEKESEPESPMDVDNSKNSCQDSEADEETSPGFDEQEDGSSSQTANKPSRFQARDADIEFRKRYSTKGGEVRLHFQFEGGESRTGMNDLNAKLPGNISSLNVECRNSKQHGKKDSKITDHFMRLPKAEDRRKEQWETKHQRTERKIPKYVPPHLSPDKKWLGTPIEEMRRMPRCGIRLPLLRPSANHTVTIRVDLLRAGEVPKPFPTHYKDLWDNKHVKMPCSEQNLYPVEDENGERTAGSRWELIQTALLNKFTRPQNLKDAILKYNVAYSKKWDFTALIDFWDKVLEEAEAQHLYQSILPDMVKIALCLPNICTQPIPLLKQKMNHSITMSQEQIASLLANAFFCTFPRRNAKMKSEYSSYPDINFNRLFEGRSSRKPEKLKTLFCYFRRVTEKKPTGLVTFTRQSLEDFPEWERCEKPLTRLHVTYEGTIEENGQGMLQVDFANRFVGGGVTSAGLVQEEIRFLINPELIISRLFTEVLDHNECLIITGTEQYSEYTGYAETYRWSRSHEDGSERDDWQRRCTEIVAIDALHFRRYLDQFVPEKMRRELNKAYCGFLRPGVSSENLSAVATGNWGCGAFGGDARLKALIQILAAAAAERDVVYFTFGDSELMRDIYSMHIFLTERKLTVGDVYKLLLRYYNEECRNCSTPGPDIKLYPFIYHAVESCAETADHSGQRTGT

| Structure (SMILES) | IC50 [1] | IC50 (Kuramochi cell line) |
| --- | --- | --- |
| CN(C)[C@@H]1CCN(C(=O)N2CCC(c3ncnc4c3c3ccc(S(=O)(=O)NC5(C#N)CC5)cc3n4-c3nnc(C(F)F)s3)CC2)C1 [Example 137, (R)-N-(1-Cyanocyclo-propyl)-9-(5-(difluoromethyl)-1,3,4-thiadiazol-2-yl)-4-(1-(3-(dimethylamino)pyrrolidine-1-carbonyl)piperidin-4-yl)-9H-pyrimido[4,5-b] indole-7-sulfonamide] | < 0.1 µM | 0.1 to 1 µM |
| N#CC1(NS(=O)(=O)c2ccc3c4c(N5CCN(c6cccnn6)CC5)ncnc4n(-c4nnc(C(F)F)s4)c3c2)CC1 [Example 19, N-(1-Cyanocyclopropyl)-9-(5-(difluoromethyl)-1,3,4-thiadiazol-2-yl)-4-(4-(pyridazin-3-yl)piperazin-1-yl)-9H-pyrimido[4,5-b]indole-7-sulfonamide] | < 0.1 µM | 0.1 to 1 µM |
| Cn1ccnc1N1CCN(c2ncnc3c2c2ccc(S(=O)(=O)NC4(C#N)CC4)cc2n3-c2nnc(C(F)F)s2)CC1 [Example 22, N-(1-Cyanocyclopropyl)-9-(5-(difluoromethyl)-1,3,4-thiadiazol-2-yl)-4-(4-(1-methyl-JH-imidazol-2-yl)piperazin-1-yl)-9H-pyrimido[4,5-b]indole-7-sulfonamide] | < 0.1 µM | 0.1 to 1 µM |
| CC(C)CN1CCN(c2ncnc3c2c2ccc(S(=O)(=O)NC4(C#N)CC4)cc2n3-c2nnc(C(F)F)s2)CC1=O [Example 158, N-(1-cyanocyclopropyl)-9-(5-(difluoromethyl)-1,3,4-thiadiazol-2-yl)-4-(4-isobutyl-3-oxopiperazin-1-yl)-9H-pyrimido[4,5-b]indole-7-sulfonamide] | < 0.1 µM | < 0.1 µM |
| CC(C)C(=O)N1C=CC(c2ncnc3c2c2cc(F)c(S(=O)(=O)NC4(C#N)CC4)cc2n3-c2nnc(C(F)F)s2)CC1 (stereo not drawn) [Example 92, N-(1-Cyanocyclopropyl)-9-(5-(difluoromethyl)-1,3,4-thiadiazol-2-yl)-6-fluoro-4-(1-isobutyryl-1,2,3,4-tetrahydropyridin-4-yl)-9H-pyrimido[4,5-b]indole-7-sulfonamide] | < 0.1 µM | < 0.1 µM |

Second part, led by results:

| IC50 [1] | Structure (SMILES) | IC50 (Kuramochi cell line) |
| --- | --- | --- |
| < 0.1 µM | COC[C@H]1CN(c2ncnc3c2c2ccc(S(=O)(=O)NC4(C#N)CC4)cc2n3-c2nnc(C(F)F)s2)CCN1C [Example 204, (R)—N-(1-Cyanocyclopropyl)-9-(5-(difluoromethyl)-1,3,4-thiadiazol-2-yl)-4-(3-(methoxymethyl)-4-methylpiperazin-1-yl)-9H-pyrimido[4,5-b]indole-7-sulfonamide] | < 0.1 µM |
| 0.1 to 1 µM | CC(C)C(=O)N1CCN(c2ncnc3c2c2ccc(S(=O)(=O)NC4(C#N)CC4)cc2n3-c2nnc(C(F)F)s2)C[C@H]1C [Example 60, (R)-N-(1-cyanocyclopropyl)-9-(5-(difluoromethyl)-1,3,4-thiadiazol-2-yl)-4-(4-isobutyryl-3-methylpiperazin-1-yl)-9H-pyrimido[4,5-b]indole-7-sulfonamide] | 0.1 to 1 µM |
| < 0.1 µM | CC1(C(=O)N2CC3CN(c4ncnc5c4c4ccc(S(=O)(=O)NC6(C#N)CC6)cc4n5-c4nnc(C(F)F)s4)CC3C2)CC1 (stereo not drawn) [Example 36, N-(1-Cyanocyclopropyl)-9-(5-(difluoromethyl)-1,3,4-thiadiazol-2-yl)-4-(5-(1-methylcyclopropane-1-carbonyl)hexahydropyrrolo[3,4-c]pyrrol-2(1H)-yl)-9H-pyrimido[4,5-b]indole-7-sulfonamide] | 0.1 to 1 µM |
| 0.1 to 1 µM | CC(C)OC(=O)N1CCN(c2ncnc3c2c2ccc(S(=O)(=O)NC4(C#N)CC4)cc2n3-c2nnc(C(F)F)s2)CC1 [Example 15, Isopropyl 4-(7-(N-(1-cyanocyclopropyl)sulfamoyl)-9-(5-(difluoromethyl)-1,3,4-thiadiazol-2-yl)-9H-pyrimido[4,5-b]indol-4-yl)piperazine-1-carboxylate] | 0.1 to 1 µM |
